From patent US7563774B2, “Combination of FBPase inhibitors and antidiabetic agents useful for the treatment of diabetes” (Metabasis Therapeutics, Inc., priority 2000, dated 2009)

Tests used:
[1] = test system: gluconeogenesis in rat hepatocytes; assay: Inhibition of gluconeogenesis in rat hepatocytes (Example C); assay type: cell-based; conditions: Hepatocyte, glucose production from lactate/pyruvate, 1 hour
Protocol: Hepatocytes (75 mg wet weight/mL) were incubated in 1 mL Krebs-bicarbonate buffer containing 10 mM Lactate, 1 mM pyruvate, 1 mg/mL BSA, and test compound concentrations from 0 to 500 μM. […] After 1 hour, an aliquot (0.25 mL) was removed, transferred to an Eppendorf tube and centrifuged. 50 μL of supernatant was then assayed for glucose content using a Sigma Glucose Oxidase kit as per the manufacturer's instructions.

[2] = test system: rat hepatocytes; assay: Glucose production and fructose-1,6-bisphosphate levels in rat hepatocytes (Example D); assay type: cell-based
Protocol: Hepatocytes were prepared from fed Sprague-Dawley rats (250-300 g) according to the procedure of Berry and Friend (Berry, M. N., Friend, D. S., 1969, J. Cell. Biol. 43, 506-520) as modified by Groen (Groen, A. K., Sips, H. J., Vervoom, R. C., Tager, J. M., 1982, Eur. J. Biochem. 122, 87-93). Hepatocytes (75 mg wet weight/mL) were incubated in 1 mL Krebs-bicarbonate buffer containing 10 mM Lactate, 1 mM pyruvate, 1 mg/mL BSA, and test compound concentrations from 0 to 500 μM. Incubations were carried out in a 95% oxygen, 5% carbon dioxide atmosphere in closed, 50-mL Falcon tubes submerged in a rapidly shaking water bath (37° C.). After 1 hour, an aliquot (0.25 mL) was removed, transferred to an Eppendorf tube and centrifuged. 50 μL of supernatant was then assayed for glucose content using a Sigma Glucose Oxidase kit as per the manufacturer's instructions.
Rat hepatocytes were isolated and incubated as described in Example C. Cell extracts, were analyzed for glucose content as described in Example C, and also for fructose 1,6-bisphosphate. Fructose 1,6-bisphosphate was assayed spectrophotometrically by coupling its enzymatic conversion to glycerol 3-phosphate to the oxidation of NADH, which was monitored at 340 nm. Reaction mixtures (1 mL) consisted of 200 mM Tris-HCl, pH 7.4, 0.3 mM NADH, 2 units/mL glycerol 3-phosphate dehydrogenase, 2 units/ml triosephosphate isomerase, and 50-100 μL cell extract. After a 30 minute preincubation at 37° C., 1 unit/ml of aldolase was added and the change in absorbance measured until a stable value was obtained. 2 moles of NADH are oxidized in this reaction per mole of fructose 1,6-bisphosphate present in the cell extract.

[3] = test system: Sprague-Dawley rats; assay: Drug metabolite levels, blood glucose and hepatic fructose 1,6-bisphosphate after Compound A p.o. in rats (Example E); assay type: in vivo, rat
Protocol: Compound A was administered by oral gavage to freely-feeding Sprague Dawley rats (250-300 g). The compound was prepared as a suspension in carboxymethylcellulose, and administered at a dose of 250 mg/kg. For the determination of liver metabolites, rats were serially sacrificed over the course of 24 hours after drug administration. Livers were freeze-clamped, homogenized in perchloric acid, neutralized, and then analyzed for Compound B by anion exchange HPLC.
For the determination of plasma metabolites, rats were instrumented with carotid catheters prior to oral dosing. Blood samples were withdrawn via the catheters at appropriate time points over the course of 8 hours post drug administration. Plasma was prepared from the blood samples by centrifugation, and plasma protein precipitated by the addition of methanol to 60%. Compound A metabolites were quantitated by reverse phase HPLC in the deproteinated plasma samples. A C18 column (1.4 cm×250 mm) was equilibrated with 10 mM sodium phosphate, pH 5.5 and eluted with a gradient from this buffer to acetonitrile. Detection was at 254 nm.
The effect of Compound A on blood glucose and hepatic fructose 1,6-bisphosphate levels was determined in 18-hour fasted Sprague-Dawley rats (250-300 g). Animals were dosed as described above. At appropriate time points post drug administration, rats were anesthetized with halothane and a liver biopsy (approx. 1 g) was taken, as well as a blood sample (2 mL) from the posterior vena cava. A heparin flushed syringe and needle was used for blood collection. The liver sample was immediately homogenized in ice-cold 10% perchloric acid (3 mL), centrifuged, and the supernatant neutralized with ⅓ rd volume of 3 M KOH/[…]. Following centrifugation and filtration, the neutralized extract was analyzed for fructose 1,6-bisphosphate content as described for isolated hepatocytes in Example C. Blood glucose was measured by means of a Hemocue analyzer (Hemocue Inc, Mission Viejo, Calif.).

[4] = test system: Sprague-Dawley rats; assay: Glucose lowering, hepatic and plasma drug levels after intraperitoneal dosing of normal fasted rats (Example F); assay type: in vivo, rat; conditions: 1 hour post injection
Protocol: Sprague-Dawley rats (250-300 g) were fasted for 18 hours and then dosed intraperitoneally either with saline or FBPase inhibitor. The vehicle used for drug administration was 10 mM bicarbonate. One hour post injection, rats were anesthetized with halothane, and liver and blood samples were taken and processed as described in Example E. The neutralized liver extracts were analyzed for FBPase inhibitor content by HPLC. A reverse phase YMC ODS AQ column (250×4.6 […]) was used and eluted with a gradient from 10 mM sodium phosphate pH 5.5 to 75% acetonitrile. Absorbance was monitored at 310 nm. Glucose was measured in the blood sample as described in Example C. Plasma was prepared by centrifugation and extracted by addition of methanol to 60% (v/v). The methanolic extract was clarified by centrifugation and filtration and then analyzed by HPLC as described above.

[5] = single 250 mg/kg dose p.o., 18-hour fasted rats

SMILES | IC50 [1] [µM] | intracellular fructose 1,6-bisphosphate [2] | IC50 ([2]; Hepatocyte, read-out: IC50, inhibition of glucose production) [µM] | plasma metabolites ([3]; Compound A 250 mg/kg p.o., over 8 hours) | liver metabolites ([3]; Compound A 250 mg/kg p.o., over 24 hours) | duration of blood glucose lowering [3, 5] | hepatic fructose-1,6-bisphosphate levels [3, 5] | Liver conc. [4] [nmol/g]
CC(=O)OC[C@H]1O[C@@H](n2cnc(C(N)=O)c2Br)[C@H](OC(C)=O)[C@@H]1OC(C)=O [Compound A] | 50 | dose-dependent elevation | 50 | rapidly deacetylated at all three positions | efficiently converted to Compound B | approximately 8 hours | elevation of hepatic fructose-1,6-bisphosphate levels | 
CCc1cc(F)c(N)c2nc(-c3ccc(P(=O)(O)O)o3)n(CC(C)C)c12 [Compound E] |  | dose-dependent elevation |  |  |  |  |  | 38.4
